# Experimental data from US7067666B2, “7-substituted camptothecin and camptothecin analogs and methods for producing the same” (priority 2003, dated 2006).
# Assay: Solubility in methylene chloride (standard method for ascertaining lipophilicity)
# Type: physicochemical
# Conditions: not given
# Source text: Throughout the present application many CPT compounds have been defined with a substituent X as shown in structure I or II where X is defined and many substituents are shown. With the exception of the simple substituents where R is C1-5 alkyl (which can be prepared by the method of Sawada et al. (Chem. Pharm. Bull. 39, 2574-2580 ([…]))), the other compounds recited herein can not be made by conventional methods, but require, to the best of the inventors' knowledge, the use of the method of the present invention. Using the method of Sawada et al, the yield of alkyl became progressively lower essentially terminating where R is C5 alkyl. All other R substituents shown herein can be made only by the present method involving Grignard reactions, especially analogs like 7-t-butyl-10,11-methylenedioxy-CPT, 7-trimethylsilylmethyl-10,11-methylenedioxy-CPT, 7-naphthylmethyl-10,11-methylenedioxy-CPT, 7-p-fluorophenyl-10,11-methylenedioxy-CPT, 7-p-trifluoromethyl-10,11-methylenedioxy-CPT, and 7-p-tolyl-10,11-methylenedioxy-CPT. A number of compounds made by this method have shown unusual properties. For example, Table 1 gives the methylene chloride solubility of a number of compounds which are made by the methods described by this patent. For example, 7-butyl-10-aminocamptothecin made by this procedure is remarkably lipophilic. 10-Aminocamptothecin has a solubility of —0.2 mg/ml. […] It has been found by several groups that lipophilic substituents at the 7 position have excellent activity in the inhibition of topoisomerase I and in in vitro and in vivo cancer therapy.
# We have utilized a standard method for ascertaining the lipophilicity of a number of camptothecin analogs. This involves the solubility in methylene chloride. This solvent is an excellent solvent for fat-soluble compounds. As can be noted with only one exception, compounds with the 7-butyl substituent are considerably more soluble than those without this constituent. Thus camptothecin is soluble only to the extent of 0.6 mg/ml whereas 7-butyl-camptothecin has a solubility of 20 mg/ml. 10-Amino-camptothecin is soluble only to the extent of 0.2 mg/ml. Very unexpectedly, 7-butyl-10-amino-camptothecin is very soluble at 145 mg/ml. It is also conceivable that camptothecin analogs with 7-pentyl or 7-hexyl substituents or 7-cyclopentyl or 7-cyclohexyl substituents will have increased solubility.
Compound,Solubility [µg/mL],solubility in methylene chloride [µg/mL]
"CC[C@@]1(O)C(=O)OCc2c1cc1n(c2=O)Cc2c-1nc1cc3c(cc1c2-c1ccc(Cl)cc1)OCO3 [7-p-Chlorophenyl-10,11-MD-CPT, 7-p-Chlorophenyl-10,11-MD-20(S)-Camptothecin]",6300,
"CCCCc1c2c(nc3cc4c(cc13)OCO4)-c1cc3c(c(=O)n1C2)COC(=O)[C@]3(O)CC [7-Butyl-10,11-MD-CPT]",8500,
"CCCCc1c2c(nc3ccccc13)-c1cc3c(c(=O)n1C2)COC(=O)C3(O)CC (centres unmarked) [Example 7-Butyl-CPT, 7-butyl-camptothecin]",20000,20000
"CC[C@@]1(O)C(=O)OCc2c1cc1n(c2=O)Cc2c-1nc1cc3c(cc1c2Cc1ccccc1)OCO3 [7-Benzyl-10,11-MD-CPT, 7-Benzyl-10,11-MD-20(S)-Camptothecin]",1800,
"CCC1(O)C(=O)OCc2c1cc1n(c2=O)Cc2cc3c(C)cccc3nc2-1 (centres unmarked) [Example 9-Methyl-CPT, 9-Methyl-CPT, reference compound]",100,
"CC[C@@]1(O)C(=O)OCc2c1cc1n(c2=O)Cc2cc3c(N)cccc3nc2-1 [Example 9-Amino-CPT, 9-Amino-CPT, reference compound]",<30,
CCC(C)c1c2c(nc3ccccc13)-c1cc3c(c(=O)n1C2)COC(=O)C3(O)CC (centres unmarked) [7-(sec)Butyl-CPT],33000,
"CC[C@@]1(O)C(=O)OCc2c1cc1n(c2=O)Cc2cc3cc(OC)ccc3nc2-1 [10-Methoxy-CPT, reference compound]",3000,
"CC[C@@]1(O)C(=O)OCc2c1cc1n(c2=O)Cc2c-1nc1cc3c(cc1c2-c1ccc(F)cc1)OCO3 [7-p-Fluorophenyl-10,11-MD-CPT, 7-p-Fluorophenyl-10,11-MD-20(S)-Camptothecin]",2550,
CCCCc1c2c(nc3ccc(OC)cc13)-c1cc3c(c(=O)n1C2)COC(=O)C3(O)CC (centres unmarked) [7-Butyl-10-methoxy-CPT],2000,
7-Butyl-9-methyl-CPT,180,
"CCC1(O)C(=O)OCc2c1cc1n(c2=O)Cc2cc3c([N+](=O)[O-])c4c(cc3nc2-1)OCO4 (centres unmarked) [9-Nitro-10,11-MD-CPT, reference compound]",250,
"CC[C@@]1(O)C(=O)OCc2c1cc1n(c2=O)Cc2c-1nc1cc3c(cc1c2-c1ccc(C)cc1)OCO3 [7-p-Tolyl-10,11-MD-CPT, 7-p-Tolyl-10,11-MD-20(S)-Camptothecin]",4600,
"CCCCc1c2c(nc3ccc(N)cc13)-c1cc3c(c(=O)n1C2)COC(=O)[C@]3(O)CC [7-Butyl-10-Amino-CPT, 7-n-Butyl-10-Amino-20(S)-Camptothecin]",145000,
"CCC1(O)C(=O)OCc2c1cc1n(c2=O)Cc2cc3c(N)c4c(cc3nc2-1)OCO4 (centres unmarked) [9-Amino-10,11-MD-CPT, reference compound]",<20,
CCCCc1c2c(nc3ccc(O)cc13)-c1cc3c(c(=O)n1C2)COC(=O)[C@]3(O)CC [7-Butyl-10-OH-CPT],<50,
"CCCCc1c2c(nc3cc4c(cc13)OCCO4)-c1cc3c(c(=O)n1C2)COC(=O)C3(O)CC (centres unmarked) [7-Butyl-10,11-ED-CPT]",7000,
"7-Benzyl-10,11-CPT",1800,
"CCC1(O)C(=O)OCc2c1cc1n(c2=O)Cc2cc3cc4c(cc3nc2-1)OCCO4 (centres unmarked) [10,11-ED-CPT, reference compound]",200,
"CC[C@@]1(O)C(=O)OCc2c1cc1n(c2=O)Cc2cc3cc(N)ccc3nc2-1 [Example 10-Amino-CPT, 10-Aminocamptothecin, reference compound]",200,200

# Same assay, conditions: Solubility in CH2Cl2
row,Compound,Solubility [µg/mL]
1,CC[C@@]1(O)C(=O)OCc2c1cc1n(c2=O)Cc2cc3ccccc3nc2-1 [Camptothecin],600
2,"CC[C@@]1(O)C(=O)OCc2c1cc1n(c2=O)Cc2cc3cc4c(cc3nc2-1)OCO4 [10,11-MD-CPT, 10,11-methylenedioxy-CPT, reference compound]",<8
3,"CC[C@@]1(O)C(=O)OCc2c1cc1n(c2=O)Cc2cc3cc(O)ccc3nc2-1 [Example 10-OH-CPT, 10-OH-CPT, reference compound]",<40

# Same assay, conditions: organic solvent or mixture; methylene chloride; read-out: solubility in methylene chloride
row,Compound,Solubility [µg/mL]
1,CC[C@@]1(O)C(=O)OCc2c1cc1n(c2=O)Cc2cc3ccccc3nc2-1 [Camptothecin],600
